According to patent publication US20220363665A1, “QUINOLINE COMPOUNDS FOR THE TREATMENT OF AUTOIMMUNE DISEASE” (Hoffmann-La Roche Inc., priority 2019, published 2022):

Legend:
LYSA solubility assay = assay type: physicochemical; details: for solubility thermodynamic: thermodynamic from solid
Experimental: LYSA study is used to determine the aqueous solubility of tested compounds. Samples are prepared in duplicate from 10 mM DMSO stock solution. After evaporation of DMSO with a centrifugal vacuum evaporator, compounds are dissolved in a 0.05 M phosphate buffer (pH 6.5), stirred for one hr and shaken for two hrs. After one night, the solutions are filtered using a microtiter filter plate. Then the filtrate and its 1/10 dilution are analyzed by HPLC-UV. In addition, a four-point calibration curve is prepared from the 10 mM stock solutions and used for the solubility determination of the compounds. The results are in μg/mL. In case the percentage of sample measured in solution after evaporation divided by the calculated maximum of sample amount is bigger than 80%, the solubility is reported as bigger than this value.

human TLR9 = molecular target: T1, human TLR9 (Homo sapiens, UniProt Q9NR96); assay: HEK293-Blue-hTLR-9 cells assay (SEAP reporter, ODN2006 stimulation); assay type: cell-based; details: HEK293-Blue-hTLR9 cells, ODN2006, 20 hrs
T1 construct: host or cells: HEK293 (HEK-Blue hTLR9)
T1 sequence (Q9NR96 26-1032): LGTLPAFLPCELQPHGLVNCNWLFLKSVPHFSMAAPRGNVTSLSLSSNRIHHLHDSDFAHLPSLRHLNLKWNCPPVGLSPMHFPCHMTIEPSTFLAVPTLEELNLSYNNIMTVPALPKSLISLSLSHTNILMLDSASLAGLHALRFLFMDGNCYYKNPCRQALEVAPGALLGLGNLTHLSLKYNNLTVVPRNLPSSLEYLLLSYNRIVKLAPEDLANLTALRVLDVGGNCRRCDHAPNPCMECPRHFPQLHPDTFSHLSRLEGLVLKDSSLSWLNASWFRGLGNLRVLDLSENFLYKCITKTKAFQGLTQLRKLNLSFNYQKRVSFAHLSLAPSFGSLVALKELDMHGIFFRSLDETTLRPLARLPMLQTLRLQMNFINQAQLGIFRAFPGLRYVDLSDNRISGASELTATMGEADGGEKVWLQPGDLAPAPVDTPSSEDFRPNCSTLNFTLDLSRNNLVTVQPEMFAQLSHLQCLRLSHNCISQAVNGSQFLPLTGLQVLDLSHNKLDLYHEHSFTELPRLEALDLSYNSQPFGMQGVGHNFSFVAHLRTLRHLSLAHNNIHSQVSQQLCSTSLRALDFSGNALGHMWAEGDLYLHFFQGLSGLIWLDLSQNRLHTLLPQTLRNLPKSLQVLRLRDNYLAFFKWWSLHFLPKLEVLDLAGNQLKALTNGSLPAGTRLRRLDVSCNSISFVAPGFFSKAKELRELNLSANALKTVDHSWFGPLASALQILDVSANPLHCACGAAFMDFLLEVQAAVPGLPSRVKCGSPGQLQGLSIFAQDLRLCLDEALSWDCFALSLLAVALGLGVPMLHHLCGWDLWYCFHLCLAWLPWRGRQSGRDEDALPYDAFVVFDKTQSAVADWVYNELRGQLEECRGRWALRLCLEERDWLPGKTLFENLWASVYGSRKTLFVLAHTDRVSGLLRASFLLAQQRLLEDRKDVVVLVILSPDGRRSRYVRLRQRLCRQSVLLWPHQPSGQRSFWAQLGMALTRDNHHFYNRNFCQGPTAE
Experimental: The following tests were carried out in order to determine the activity of the compounds of formula (I) in HEK293-Blue-hTLR-7/8/9 cells assay.
HEK293-Blue-hTLR-9 Cells Assay:
A stable HEK293-Blue-hTLR-9 cell line was purchased from InvivoGen (Cat. #. hkb-htlr9, San Diego, Calif., USA). These cells were originally designed for studying the stimulation of human TLR9 by monitoring the activation of NF-κB. A SEAP (secreted embryonic alkaline phosphatase) reporter gene was placed under the control of the […] minimal promoter fused to five NF-κB and AP-1-binding sites. The SEAP was induced by activating NF-κB and AP-1 via stimulating HEK-Blue hTLR9 cells with TLR9 ligands. Therefore the reporter expression was declined by TLR9 antagonist under the stimulation of a ligand, such as ODN2006 (Cat. #: tlrl-2006-1, Invivogen, San Diego, Calif., USA), for incubation of 20 hrs. The cell culture supernatant SEAP reporter activity was determined using QUANTI-Blue™ kit (Cat. #: rep-qbl, Invivogen, San Diego, Calif., USA) at a wavelength of 640 nm, a detection medium that turns purple or blue in the presence of alkaline phosphatase.
HEK293-Blue-hTLR9 cells were incubated at a density of […] cells/mL in a volume of 170 μL, in a 96-well plate in Dulbecco's Modified Eagle's medium (DMEM) containing 4.5 g/L glucose, 50 U/mL penicillin, […], […], 2 mM L-glutamine, 10% (v/v) heat-inactivated fetal bovine serum with addition of 20 μL test compound in a serial dilution in the presence of final DMSO at 1% and 10 μL of 20 uM ODN2006 in above DMEM, perform incubation under 37° C. in a CO2 incubator for 20 hrs. Then 20 μL of the supernatant from each well was incubated with 180 μL Quanti-blue substrate solution at 37° C. for 2 hrs and the absorbance was read at 620˜655 nm using a spectrophotometer. The signalling pathway that TLR9 activation leads to downstream NF-κB activation has been widely accepted, and therefore similar reporter assay was modified for evaluating TLR9 antagonist.

[1] = 0.05 M phosphate buffer, pH 6.5, aqueous buffer
[2] = 0.05 M phosphate buffer (pH 6.5)

| SMILES | solubility thermodynamic (LYSA solubility assay; [1]) [µg/mL] | IC50 (human TLR9) [µM] | LYSA (LYSA solubility assay; [2]) [µg/mL] | solubility thermodynamic (LYSA solubility assay; aqueous buffer, 0.05 M phosphate buffer (pH 6.5)) [µg/mL] |
| --- | --- | --- | --- | --- |
| C[C@@H]1CN(c2ccc(C(F)(F)F)c3ncccc23)C[C@H](C(=O)N[C@@H]2CNC[C@@H]2F)O1 (single isomer, unassigned) [Example 2A] | > 580 | 41 |  |  |
| C[C@@H]1CN(c2ccc(C(F)(F)F)c3ncccc23)C[C@H](C(=O)N[C@H]2CNC[C@H]2F)O1 (single isomer, unassigned) [Example 2B] | > 625 | 34.6 |  |  |
| C[C@@H]1CN(c2ccc(C(F)(F)F)c3ncccc23)C[C@H](C(=O)NC2CC3CCCC(C2)N3)O1 (single isomer, unassigned) [Example 34A] | > 620 | 8.5 |  |  |
| C[C@@H]1CN(c2ccc(C(F)(F)F)c3ncccc23)C[C@H](C(=O)NC2CC3CCCC(C2)N3)O1 (single isomer, unassigned) [Example 34B] |  | 10 | >610.0 |  |
| CC(NC(=O)[C@H]1CN(c2ccc(C(F)(F)F)c3ncccc23)C[C@@H](C)O1)C1CN(C)CCO1 (single isomer, unassigned) [Example 35A] | > 600 | 42.7 |  |  |
| CC(NC(=O)[C@H]1CN(c2ccc(C(F)(F)F)c3ncccc23)C[C@@H](C)O1)C1CN(C)CCO1 (single isomer, unassigned) [Example 35B] |  | 50.2 | >625.0 |  |
| C[C@@H]1CN(c2ccc(C(F)(F)F)c3ncccc23)C[C@H](C(=O)NC2C3CNCC2COC3)O1 (single isomer, unassigned) [Example 46A] | > 650 | 23 |  |  |
| C[C@@H]1CN(c2ccc(C(F)(F)F)c3ncccc23)C[C@H](C(=O)NC2C3CNCC2COC3)O1 (single isomer, unassigned) [Example 46B] |  | 15.3 | >667.0 |  |
| C[C@@H]1CN(c2ccc(C(F)(F)F)c3ncccc23)C[C@H](C(=O)NC2CC3CCC(C2)N3)O1 (single isomer, unassigned) [Example 47A] | > 620 | 10.1 |  |  |
| C[C@@H]1CN(c2ccc(C(F)(F)F)c3ncccc23)C[C@H](C(=O)NC2CC3CCC(C2)N3)O1 (single isomer, unassigned) [Example 47B] |  | 10.5 | >605.0 |  |
| C[C@@H]1CN(c2ccc(C(F)(F)F)c3ncccc23)C[C@H](C(=O)NC2CC3CNCC32)O1 (single isomer, unassigned) [Example 49A] | > 660 | 10.7 |  |  |
| C[C@@H]1CN(c2ccc(C(F)(F)F)c3ncccc23)C[C@H](C(=O)NC2CC3CNCC32)O1 (single isomer, unassigned) [Example 49B] |  | 7.3 | >690.0 |  |
| C[C@@H]1CN(c2ccc(C(F)(F)F)c3ncccc23)C[C@H](C(=O)NC2CC3CNCC32)O1 (single isomer, unassigned) [Example 49C] |  | 7.7 | >710.0 |  |
| C[C@H]1C[C@@H](N)CN(c2ccc(C(F)(F)F)c3ncccc23)C1 [Example 1, (3R,5S)-5-methyl-1-[8-(trifluoromethyl)-5-quinolyl]piperidin-3-amine] |  | 9.7 |  |  |
| C[C@@H]1CN(c2ccc(C(F)(F)F)c3ncccc23)C[C@H](C(=O)NC2CNC[C@@H]2F)O1 (stereo partly drawn) [Example 2, cis-(2R,6R)-N-(4-fluoropyrrolidin-3-yl)-6-methyl-4-[8-(trifluoromethyl)-5-quinolyl]morpholine-2-carboxamide] | > 585 | 51.8 |  |  |
| C[C@@H]1CN(c2ccc(C(F)(F)F)c3ncccc23)C[C@H](C(=O)NCC2CN(C)CCO2)O1 (stereo partly drawn) [Example 3, (2R,6R)-6-methyl-N-[(4-methylmorpholin-2-yl)methyl]-4-[8-(trifluoromethyl)-5-quinolyl]morpholine-2-carboxamide] | > 690 | 81.9 |  |  |
| C[C@@H]1CN(c2ccc(C(F)(F)F)c3ncccc23)C[C@H](C(=O)NCC2CCCCN2C)O1 (stereo partly drawn) [Example 4, (2R,6R)-6-methyl-N-[(1-methyl-2-piperidyl)methyl]-4-[8-(trifluoromethyl)-5-quinolyl]morpholine-2-carboxamide] | > 660 | 11.4 |  |  |
| C[C@@H]1CN(c2ccc(C(F)(F)F)c3ncccc23)C[C@H](C(=O)NC2CCN(C)CC2)O1 [Example 5, (2R,6R)-6-methyl-N-(1-methyl-4-piperidyl)-4-[8-(trifluoromethyl)-5-quinolyl]morpholine-2-carboxamide] | > 655 | 15.5 |  |  |
| C[C@@H]1CN(c2ccc(C(F)(F)F)c3ncccc23)C[C@H](C(=O)NCC(C)(C)N)O1 [Example 6, (2R,6R)-N-(2-amino-2-methyl-propyl)-6-methyl-4-[8-(trifluoromethyl)-5-quinolyl]morpholine-2-carboxamide] | > 640 | 29.8 |  |  |
| C[C@@H]1CN(c2ccc(C(F)(F)F)c3ncccc23)C[C@H](C(=O)N2CC(N)C2)O1 [Example 7, (3-aminoazetidin-1-yl)-[(2R,6R)-6-methyl-4-[8-(trifluoromethyl)-5-quinolyl]morpholin-2-yl]methanone] | > 605 | 68.5 |  |  |
| C[C@@H]1CN(c2ccc(C(F)(F)F)c3ncccc23)C[C@H](C(=O)NC2CCCNCC2)O1 (stereo partly drawn) [Example 8, (2R,6R)-N-(azepan-4-yl)-6-methyl-4-[8-(trifluoromethyl)-5-quinolyl]morpholine-2-carboxamide] | > 680 | 10.3 |  |  |
| C[C@@H]1CN(c2ccc(C(F)(F)F)c3ncccc23)C[C@H](C(=O)NC2CN(C)CC23CC3)O1 (stereo partly drawn) [Example 9, (2R,6R)-6-methyl-N-(5-methyl-5-azaspiro[2.4]heptan-7-yl)-4-[8-(trifluoromethyl)-5-quinolyl]morpholine-2-carboxamide] |  | 10.9 |  | > 685 |
| C[C@@H]1CN(c2ccc(C(F)(F)F)c3ncccc23)C[C@H](C(=O)N2CCC(N)C2)O1 (stereo partly drawn) [Example 10, (3-aminopyrrolidin-1-yl)-[(2R,6R)-6-methyl-4-[8-(trifluoromethyl)-5-quinolyl]morpholin-2-yl]methanone] | > 655 | 18.4 |  |  |
| Cc1ccc(N2C[C@@H](C)C[C@@H](N)C2)c2cccnc12 [Example 15, (3R,5S)-5-methyl-1-(8-methyl-5-quinolyl)piperidin-3-amine] |  | 14 |  |  |
